The assay has as its target T1, CDK4/cyclin D1 kinase complex (Homo sapiens, UniProt P11802).
T1 construct: HA (Hemagglutinin tag) (C); made in house; host or cells: Sf9 insect cells (baculovirus co-infection)
Kind of assay: CDK4/cyclinD1 Flashplate assay in 96-well format. In kind it is biochemical. To be noted: read-out: IC 50 CDK4. The method, then:
Purification of the CDK4-HA/cyclin D1-(His)6 complex by IMAC (Immobilized Metal Affinity Chromatography):
Two recombinant baculoviruses carrying the human sequences coding respectively for CDK4-HA (C-terminal fusion with the Hemagglutinin tag) and for cyclin D1-(His)6 are used to co-infect Sf9 insect cells. Sixty hours after the beginning of co-infection, the cells are harvested by centrifugation and then frozen at −20° C. until their use. After thawing in buffer A (HEPES 200 mM pH 7.0, NaCl 50 mM, MgCl2 2 mM, imidazole 25 mM, TCEP 1 mM, glycerol 10% (w/v), NaF 1 mM, Na3VO4 1 mM), stirring at 4° C. for 1 h, and centrifugation, the complex present in the lysis supernatant is purified by affinity chromatography on nickel (IMAC) and stored at −80° C.
CDK4/cyclinD1 Flashplate Assay in 96-Well Format.
An assay in 96-well “Flashplate” (scintillation plate) plates coated with streptavidin is used to evaluate the inhibition of the CDK4/cyclin D1 kinase complex by the products of the invention. To perform this test, the biotinylated peptide substrate, a fragment of the pRb protein, (biotinyl-[…]-amide), is dissolved at a concentration of 2 mM in kinase buffer (HEPES/NaOH 50 mM, NaCl 1 mM, MgCl2 5 mM, pH=7.5) to form a stock solution, which is stored at −20° C. in the form of 110 μl aliquots. On the day of the experiment, an aliquot of this solution is thawed and diluted in kinase buffer containing 1 mM of dithiothreitol, added at the time of use, so as to give a final peptide concentration of 2.571 μM. seventy μl of this solution are deposited in each well of the Flashplate plate, to give a final substrate concentration of 1.8 μM during the enzymatic reaction, which is performed in a final volume of 100 μl (cf. below). Intermediate dilutions of inhibitors (products of the invention) at various concentrations are prepared in DMSO from 10 mM stock solutions in separate tubes. In this way dilutions at 1000 μM, 333.3 μM, 111.1 μM, 37.03 μM, 12.35 μM, 4.11 μM and 1.37 μM are produced. One μl of each of these solutions (or 1 μl of DMSO for the controls) is subsequently transferred into the wells of the assay plate. To each well there is subsequently added 19 μl of a solution of a mixture of adenosine triphosphate (ATP) and ATPγ^33P in the kinase buffer at a concentration of 5.26 μM of total ATP and 78.9 μCi/ml of ^33P. The enzymatic reaction is triggered by adding 10 μl per well of a solution of CDK4/cyclin D1 complex at 250 nM in the kinase buffer, containing 1 mM of dithiothreitol (or 10 μl of kinase buffer containing 1 mM of dithiothreitol for the reaction blanks). At the end of the various additions, the final volume in each well is 100 μl, the final substrate concentration is 1.8 μM, the final inhibitor concentrations are 10 μM, 3.33 μM, 1.11 μM, 0.37 μM, 0.123 μM, 0.041 μM and 0.014 μM (depending on the concentration of the intermediate dilution), the final ATP concentration is 1 μM, the final amount of ^33P is 1.5 μCi/well, and the final concentration of CDK4/cyclin D1 complex is 25 nM.
After all of the reagents have been added, the assay plate is incubated at 30° C. with orbital stirring at 650 rpm. Following incubation, the plate is washed three times with 300 μl per well of PBS buffer (phosphate buffered saline, pH=7.4 with neither calcium nor magnesium, reference 10010-015, Gibco BRL). The incorporation of ^33P into the substrate peptide is measured by scintillation counting using a Packard Topcount.NXT instrument. The inhibitory activity of the products of the invention is evaluated by determining the concentration of inhibitor resulting in a 50% reduction in the enzymatic activity (IC50).
T1 sequence (P11802 whole entry): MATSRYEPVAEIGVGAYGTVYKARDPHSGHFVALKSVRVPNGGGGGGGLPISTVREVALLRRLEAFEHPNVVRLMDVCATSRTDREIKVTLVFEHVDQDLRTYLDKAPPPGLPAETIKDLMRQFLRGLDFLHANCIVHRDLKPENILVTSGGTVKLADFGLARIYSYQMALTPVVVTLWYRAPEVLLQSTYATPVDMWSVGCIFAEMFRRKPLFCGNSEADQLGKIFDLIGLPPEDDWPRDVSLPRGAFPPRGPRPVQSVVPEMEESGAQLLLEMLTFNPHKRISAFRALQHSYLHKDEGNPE
T1 sequence (P24385 whole entry partner): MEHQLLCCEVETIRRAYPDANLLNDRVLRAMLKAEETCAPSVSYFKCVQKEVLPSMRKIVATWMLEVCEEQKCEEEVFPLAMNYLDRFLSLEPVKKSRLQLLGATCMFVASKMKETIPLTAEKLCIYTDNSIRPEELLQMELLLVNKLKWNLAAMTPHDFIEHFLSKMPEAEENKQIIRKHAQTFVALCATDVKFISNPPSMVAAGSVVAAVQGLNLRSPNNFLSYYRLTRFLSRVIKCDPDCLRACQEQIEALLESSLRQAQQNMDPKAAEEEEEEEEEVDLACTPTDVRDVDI
With `O=C(Nc1n[nH]c2c(F)c(-c3ccc(NS(=O)(=O)c4cccc5ccccc45)cc3)ccc12)c1ccsc1` [Example 30, Thiophene-3-carboxylic acid{7-fluoro-6-[4-(naphthalene-1-sulfonylamino)-phenyl]-1H-indazol-3-yl}-amide], the IC50 came out at 490 nM.
To `O=C(Nc1n[nH]c2c(F)c(-c3ccc(NS(=O)(=O)c4cccs4)cc3)ccc12)c1ccsc1` [Example 31, Thiophene-3-carboxylic acid{7-fluoro-6-[4-(thiophene-2-sulfonylamino)-phenyl]-1H-indazol-3-yl}-amide] belongs 730 nM.
To `O=C(Nc1n[nH]c2c(F)c(-c3ccc(NS(=O)(=O)c4ccccc4)cc3)ccc12)c1ccsc1` [Example 32, Thiophene-3-carboxylic acid[6-(4-benzene-sulfonylamino-phenyl)-7-fluoro-1H-indazol-3-yl]-amide] belongs 747 nM.
For the compound `CC(=O)Nc1ccc(S(=O)(=O)Nc2ccc(-c3ccc4c(NC(=O)c5ccsc5)n[nH]c4c3F)cc2)cc1` [Example 33, Thiophene-3-carboxylic acid{6-[4-(4-acetyl-aminobenzene-sulfonylamino)-phenyl]-7-fluoro-1H-indazol-3-yl}-amide], the IC50 amounted to 1210 nM.
On to `CS(=O)(=O)Nc1ccc(-c2ccc3c(NC(=O)c4ccsc4)n[nH]c3c2F)cc1` [Example 34, Thiophene-3-carboxylic acid[7-fluoro-6-(4-methanesulfonyl-aminophenyl)-1H-indazol-3-yl]-amide], for which the IC50 stood at 2090 nM.
Turning to `O=C(Nc1n[nH]c2c(F)c(-c3ccc(NS(=O)(=O)C4CC4)cc3)ccc12)c1ccsc1` [Example 36, Thiophene-3-carboxylic acid{6-[4-cyclo-propanesulfonyl-aminophenyl)-7-fluoro-1H-indazol-3-yl}-amide], the IC50 is 3600 nM.
On to `O=C(Nc1n[nH]c2c(F)c(-c3ccc(NS(=O)(=O)c4ccccc4Cl)cc3)ccc12)c1ccsc1` [Example 37, Thiophene-3-carboxylic acid{6-[4-(2-chloro-benzenesulfonyl-amino)phenyl]-7-fluoro-1H-indazol-3-yl}-amide], for which the IC50 worked out at 51 nM.
To `O=C(Nc1n[nH]c2c(F)c(-c3ccc(NS(=O)(=O)c4cccc(Cl)c4)cc3)ccc12)c1ccsc1` [Example 38, Thiophene-3-carboxylic acid{6-[4-(3-chloro-benzenesulfonyl-amino)phenyl]-7-fluoro-1H-indazol-3-yl}-amide] belongs 419 nM.
To `Cn1cnc(S(=O)(=O)Nc2ccc(-c3ccc4c(NC(=O)c5ccsc5)n[nH]c4c3F)cc2)c1` [Example 39, Thiophene-3-carboxylic acid{7-fluoro-6[4-(1-methyl-1H-imidazole-4-sulfonylamino)-phenyl]-1H-indazol-3-yl}-amide] belongs 3650 nM.

Values taken from patent US7517902B2, “Substituted indazoles, compositions containing the same, and the preparation and use thereof” (Aventis Pharma S.A., priority 2004, dated 2009).
